pIC50: −log10 of the molar value.
What was measured:
Assay in all cases: Colony formation (CFU) assay
Format in all cases: cell-based
RERFLCAI = settings: lung
Outline: (§1)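 Under a 14-day clonogenic protocol, media bearing USP1 inhibitor, niraparib or olaparib replaced the old at day 8. Colonies were fixed, stained with crystal violet and the dye quantified at 565 nm; values were fitted to a two-parameter Hill equation.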

KU1919 = settings: Homo sapiens, KU-19-19; KU1919, bladder
Outline: as §1

SNU626 = settings: SNU626, nervous system
Outline: as §1

T174 = settings: T174, breast
Outline: as §1

BICR22 = settings: BICR22, head and neck
Outline: as §1

NCIH1373 = settings: Homo sapiens, NCI-H1373; NCIH1373, lung
Outline: as §1

NCIH1915 = settings: NCI-H1915; NCIH1915, lung
Outline: as §1

CCK81 = settings: CCK81, colon
Outline: as §1

143B = settings: Homo sapiens, bone
Outline: as §1

PECAPJ15 = settings: PECAPJ15, head and neck
Outline: as §1

DMS53 = settings: Homo sapiens, DMS-53; DMS53, lung
Outline: as §1

HCC95 = settings: Homo sapiens; HCC95, lung
Outline: as §1

LNCAP = settings: Homo sapiens, prostate
Outline: as §1

UWB1289 = settings: for sensitivity to single agents: UWB1.289, BRCA1 mutant ovarian cell line; for pIC50: UWB1289, ovary
Outline: as §1

JHOS2 = settings: for pIC50: JHOS2, ovary; for activity as single agents: JHOS2, up to 300 nM
Outline: as §1

HBCx3 = settings: HBCx3, breast
Outline: as §1

COV434 = settings: COV434, ovary
Outline: as §1

GSU = settings: stomach
Outline: as §1

SCC15 = settings: Homo sapiens, SCC-15; SCC15, head and neck
Outline: as §1

NCIH838 = settings: Homo sapiens, NCI-H838; NCIH838, lung
Outline: as §1

T226 = settings: T226, breast
Outline: as §1

CHAGOK1 = settings: Homo sapiens, ChaGo-K-1; CHAGOK1, lung
Outline: as §1

HS821T = settings: bone
Outline: as §1

TCCSUP = settings: Homo sapiens, TCC-SUP, bladder
Outline: as §1

KURAMOCHI = settings: ovary
Outline: as §1

NCIH1838 = settings: Homo sapiens, NCI-H1838; NCIH1838, lung
Outline: as §1

JHH7 = settings: JHH7, liver
Outline: as §1

SNU81 = settings: SNU81, colon
Outline: as §1

DOTC24510 = settings: Homo sapiens, DoTc2-4510; DOTC24510, cervix
Outline: as §1

SNU407 = settings: SNU-407; SNU407, colon
Outline: as §1

NCIH1693 = settings: Homo sapiens, NCI-H1693; NCIH1693, lung
Outline: as §1

HUO3N1 = settings: HUO3N1, bone
Outline: as §1

SJSA1 = settings: Homo sapiens, SJSA-1; SJSA1, bone
Outline: as §1

RKO = settings: Homo sapiens, colon
Outline: as §1

CAOV3 = settings: Homo sapiens, Caov-3; CAOV3, ovary
Outline: as §1

NCIH1648 = settings: Homo sapiens, NCI-H1648; NCIH1648, lung
Outline: as §1

NCIH1299 = settings: Homo sapiens, NCI-H1299; NCIH1299, lung
Outline: as §1

SMILES | pIC50 (RERFLCAI) | pIC50 (KU1919) | pIC50 (SNU626) | pIC50 (T174) | pIC50 (BICR22) | pIC50 (NCIH1373) | pIC50 (NCIH1915) | pIC50 (CCK81) | pIC50 (143B) | pIC50 (PECAPJ15) | pIC50 (DMS53) | pIC50 (HCC95) | pIC50 (LNCAP) | sensitivity to single agents (UWB1289) | pIC50 (UWB1289) | pIC50 (JHOS2) | activity as single agents (JHOS2) | pIC50 (HBCx3) | pIC50 (COV434) | pIC50 (GSU) | also measured
NC(=O)c1cccc2cn(-c3ccc([C@@H]4CCCNC4)cc3)nc12 [Niraparib, niraparib, reference compound] | < 6.52 | 6.74 | < 6.52 | < 6.52 | < 6.52 | < 6.52 | 7.18 | < 6.52 | < 6.52 | < 6.52 | 6.77 | < 6.52 | < 6.52 | sensitive | 7.55 | < 6.52 | little to no activity | 7.68 | 6.97 | < 6.52 | pIC50 (SCC15): < 6.52; pIC50 (NCIH838): < 6.52; pIC50 (T226): < 6.52; pIC50 (CHAGOK1): < 6.52; pIC50 (HS821T): < 6.52; pIC50 (TCCSUP): < 6.52; pIC50 (KURAMOCHI): < 6.52; pIC50 (NCIH1838): < 6.52; pIC50 (JHH7): < 6.52; pIC50 (SNU81): 7.73; pIC50 (DOTC24510): 7.52; pIC50 (SNU407): 7.14; pIC50 (NCIH1693): < 6.52; pIC50 (HUO3N1): < 6.52; pIC50 (SJSA1): < 6.52; pIC50 (RKO): < 6.52; pIC50 (CAOV3): 6.62; pIC50 (NCIH1648): < 6.52; pIC50 (NCIH1299): < 6.52
COc1ncnc(C2CC2)c1-c1ncc2cnn(Cc3ccc(-c4nc(C(F)(F)F)cn4C)cc3)c2n1 [Formula II, 6-(4-cyclopropyl-6-methoxypyrimidin-5-yl)-1-(4-(1-methyl-4-(trifluoromethyl)-1H-imidazol-2-yl)benzyl)-1H-pyrazolo[3,4-d]pyrimidine] | < 6.52 | 7.60 | < 6.52 | < 6.52 | < 6.52 | < 6.52 | 7.28 | < 6.52 | < 6.52 | < 6.52 | < 6.52 | < 6.52 | < 6.52 | sensitive | 7.65 | < 6.52 | little to no activity | < 6.52 | < 6.52 | < 6.52 | pIC50 (SCC15): 7.55; pIC50 (NCIH838): < 6.52; pIC50 (T226): < 6.52; pIC50 (CHAGOK1): < 6.52; pIC50 (HS821T): < 6.52; pIC50 (TCCSUP): < 6.52; pIC50 (KURAMOCHI): < 6.52; pIC50 (NCIH1838): < 6.52; pIC50 (JHH7): < 6.52; pIC50 (SNU81): 7.99; pIC50 (DOTC24510): < 6.52; pIC50 (SNU407): < 6.52; pIC50 (NCIH1693): 7.90; pIC50 (HUO3N1): < 6.52; pIC50 (SJSA1): < 6.52; pIC50 (RKO): < 6.52; pIC50 (CAOV3): 7.56; pIC50 (NCIH1648): < 6.52; pIC50 (NCIH1299): < 6.52
